Reference: DBAASP
In brackets after ≈: the same amount, converted by molar mass.

How the values were obtained:
Experiment in all cases: ≥ marks a high value that may be exact or a test limit, other limits are often not marked, values filed in µg/mL are converted to µM
[1] = test system: Bacillus subtilis KCTC 3068
[2] = test system: Escherichia coli KCTC 1682
[3] = test system: Pseudomonas aeruginosa KCTC 1637
[4] = test system: Salmonella typhimurium KCTC 1926
[5] = test system: Staphylococcus aureus KCTC 1621
[6] = test system: Staphylococcus epidermidis KCTC 1917
[7] = test system: Escherichia coli JW0013

Structure (SMILES)	MIC [1] [µM]	MIC [2] [µM]	MIC [3] [µM]	MIC [4] [µM]	MIC [5] [µM]	MIC [6] [µM]	MIC [7] [µM]
CC[C@H](C)[C@H](N)C(=O)NCC(=O)N[C@@H](CCCCN)C(=O)N[C@@H](CC(C)C)C(=O)N[C@@H](Cc1ccccc1)C(=O)N[C@@H](CCCCN)C(=O)N[C@@H](CCCN=C(N)N)C(=O)N[C@H](C(=O)N[C@H](C(=O)N[C@@H](CCCCN)C(=O)N[C@@H](CCCN=C(N)N)C(=O)N[C@H](C(=O)N[C@@H](CC(C)C)C(=O)N[C@@H](CCCCN)C(=O)N[C@@H](Cc1ccccc1)C(=O)N[C@@H](CC(C)C)C(=O)N[C@@H](CCCN=C(N)N)C(=O)N[C@@H](CCCCN)C(=O)N[C@@H](CC(C)C)C(=O)O)[C@@H](C)CC)C(C)C)[C@@H](C)CC [IGKLFKRIVKRILKFLRKL]	2 (≈ 4.74 µg/mL)	8 (≈ 19 µg/mL)	8 (≈ 19 µg/mL)	4 (≈ 9.48 µg/mL)	4 (≈ 9.48 µg/mL)	4 (≈ 9.48 µg/mL)	
CC[C@H](C)[C@H](NC(=O)[C@H](CC(C)C)NC(=O)[C@@H](N)CC(C)C)C(=O)N[C@H](C(=O)N[C@@H](CC(C)C)C(=O)N[C@@H](CCCCN)C(=O)N[C@@H](CCCCN)C(=O)N[C@@H](CCCCN)C(=O)N[C@@H](Cc1c[nH]c2ccccc12)C(=O)N[C@@H](CCCCN)C(=O)N[C@@H](CCCCN)C(=O)N[C@@H](CCC(N)=O)C(=O)N[C@@H](C)C(=O)N[C@@H](CCCCN)C(=O)N[C@@H](C)C(=O)N[C@@H](CCCCN)C(=O)N[C@@H](CO)C(=O)N[C@@H](CCCCN)C(N)=O)[C@@H](C)CC [LLIILKKKWKKQAKAKSK]	4 (≈ 8.61 µg/mL)	8 (≈ 17.2 µg/mL)	8 (≈ 17.2 µg/mL)	4 (≈ 8.61 µg/mL)	4 (≈ 8.61 µg/mL)	8 (≈ 17.2 µg/mL)	
CC[C@H](C)[C@H](NC(=O)[C@H](CC(C)C)NC(=O)[C@@H](N)CC(C)C)C(=O)N[C@H](C(=O)N[C@@H](CC(C)C)C(=O)N[C@@H](CCCN=C(N)N)C(=O)N[C@@H](CCCN=C(N)N)C(=O)N[C@@H](CCCN=C(N)N)C(=O)N[C@@H](Cc1c[nH]c2ccccc12)C(=O)N[C@@H](CCCN=C(N)N)C(=O)N[C@@H](CCCCN)C(=O)N[C@@H](CCC(N)=O)C(=O)N[C@@H](C)C(=O)N[C@@H](CCCN=C(N)N)C(=O)N[C@@H](C)C(=O)N[C@@H](CCCN=C(N)N)C(=O)N[C@@H](CO)C(=O)N[C@@H](CCCCN)C(N)=O)[C@@H](C)CC [LLIILRRRWRKQARARSK]	4 (≈ 9.28 µg/mL)	8 (≈ 18.6 µg/mL)	8 (≈ 18.6 µg/mL)	4 (≈ 9.28 µg/mL)	4 (≈ 9.28 µg/mL)	8 (≈ 18.6 µg/mL)	
CC[C@H](C)[C@H](NC(=O)[C@H](CC(C)C)NC(=O)[C@@H](N)CC(C)C)C(=O)N[C@H](C(=O)N[C@@H](CC(C)C)C(=O)N[C@@H](CCCN=C(N)N)C(=O)N[C@@H](CCCN=C(N)N)C(=O)N[C@@H](CCCN=C(N)N)C(=O)N[C@@H](Cc1c[nH]c2ccccc12)C(=O)N[C@@H](CCCN=C(N)N)C(=O)N[C@@H](CCCN=C(N)N)C(=O)N[C@@H](CCC(N)=O)C(=O)N[C@@H](C)C(=O)N[C@@H](CCCN=C(N)N)C(=O)N[C@@H](C)C(=O)N[C@@H](CCCN=C(N)N)C(=O)N[C@@H](CO)C(=O)N[C@@H](CCCN=C(N)N)C(N)=O)[C@@H](C)CC [LLIILRRRWRRQARARSR]	4 (≈ 9.5 µg/mL)	8 (≈ 19 µg/mL)	8 (≈ 19 µg/mL)	4 (≈ 9.5 µg/mL)	4 (≈ 9.5 µg/mL)	8 (≈ 19 µg/mL)	
CC[C@H](C)[C@H](NC(=O)[C@H](CCCN=C(N)N)NC(=O)[C@H](CCCN=C(N)N)NC(=O)[C@@H]1CCCN1C(=O)[C@@H]1CCCN1C(=O)[C@H](CCCN=C(N)N)NC(=O)[C@@H]1CCCN1C(=O)[C@H](CCCN=C(N)N)NC(=O)[C@@H]1CCCN1C(=O)[C@H](CC(C)C)NC(=O)[C@H](Cc1ccc(O)cc1)NC(=O)[C@@H]1CCCN1C(=O)[C@@H]1CCCN1C(=O)[C@H](CCCCN)NC(=O)[C@H](CC(=O)O)NC(=O)[C@@H](N)CCCN=C(N)N)C(=O)N[C@@H](Cc1ccc(O)cc1)C(=O)N[C@@H](CC(N)=O)C(=O)N[C@@H](CCCN=C(N)N)C(N)=O [RDKPPYLPRPRPPRRIYNR]							1.96 (≈ 4.8 µg/mL)
CC[C@H](C)[C@H](NC(=O)[C@H](CCCCN)NC(=O)[C@@H](N)CCCN=C(N)N)C(=O)N[C@@H](CCCN=C(N)N)C(=O)N1CCC[C@H]1C(=O)N[C@@H](CCCN=C(N)N)C(=O)N1CCC[C@H]1C(=O)N1CCC[C@H]1C(=O)N[C@@H](CCCN=C(N)N)C(=O)N[C@@H](CC(C)C)C(=O)N1CCC[C@H]1C(=O)N[C@@H](CCCN=C(N)N)C(=O)N1CCC[C@H]1C(=O)N[C@@H](CCCN=C(N)N)C(=O)N1CCC[C@H]1C(=O)N[C@@H](CCCN=C(N)N)C(=O)O [RKIRPRPPRLPRPRPR]							0.3 (≈ 0.615 µg/mL)
CC[C@H](C)[C@H](NC(=O)[C@H](CCCN=C(N)N)NC(=O)[C@H](CCCN=C(N)N)NC(=O)[C@@H]1CCCN1C(=O)[C@@H]1CCCN1C(=O)[C@H](CCCN=C(N)N)NC(=O)[C@H](CCCCN)NC(=O)[C@H](CCCN=C(N)N)NC(=O)[C@@H]1CCCN1C(=O)[C@H](CC(C)C)NC(=O)[C@H](Cc1ccc(O)cc1)NC(=O)[C@H](Cc1cnc[nH]1)NC(=O)[C@H](CCCCN)NC(=O)[C@H](CCCCN)NC(=O)[C@H](CC(=O)O)NC(=O)[C@@H](N)C(C)C)C(=O)N[C@@H](Cc1ccc(O)cc1)C(=O)N[C@@H](CC(N)=O)C(=O)N[C@@H](CCCN=C(N)N)C(N)=O [VDKKHYLPRKRPPRRIYNR]							0.682 (≈ 1.7 µg/mL)

Further lines, results first:

MIC [1] [µM]	MIC [2] [µM]	MIC [3] [µM]	MIC [4] [µM]	MIC [5] [µM]	MIC [6] [µM]	MIC [7] [µM]	Structure (SMILES)
						0.952 (≈ 2.4 µg/mL)	CC[C@H](C)[C@H](NC(=O)[C@H](CCCN=C(N)N)NC(=O)[C@H](CCCN=C(N)N)NC(=O)[C@@H]1CCCN1C(=O)[C@@H]1CCCN1C(=O)[C@H](CCCN=C(N)N)NC(=O)[C@H](CCCN=C(N)N)NC(=O)[C@H](CCCN=C(N)N)NC(=O)[C@@H]1CCCN1C(=O)[C@H](CC(C)C)NC(=O)[C@H](Cc1ccc(O)cc1)NC(=O)[C@H](Cc1cnc[nH]1)NC(=O)[C@H](CCCCN)NC(=O)[C@H](CCCCN)NC(=O)[C@H](CC(=O)O)NC(=O)[C@@H](N)C(C)C)C(=O)N[C@@H](Cc1ccc(O)cc1)C(=O)N[C@@H](CC(N)=O)C(=O)N[C@@H](CCCN=C(N)N)C(N)=O [VDKKHYLPRRRPPRRIYNR]
						0.639 (≈ 1.6 µg/mL)	CC[C@H](C)[C@H](NC(=O)[C@H](CCCN=C(N)N)NC(=O)[C@H](CCCN=C(N)N)NC(=O)[C@@H]1CCCN1C(=O)[C@@H]1CCCN1C(=O)[C@H](CCCN=C(N)N)NC(=O)[C@@H]1CCCN1C(=O)[C@H](CCCN=C(N)N)NC(=O)[C@@H]1CCCN1C(=O)[C@H](CCCN=C(N)N)NC(=O)[C@H](Cc1ccc(O)cc1)NC(=O)[C@H](Cc1cnc[nH]1)NC(=O)[C@H](CCCCN)NC(=O)[C@H](CCCCN)NC(=O)[C@H](CC(=O)O)NC(=O)[C@@H](N)C(C)C)C(=O)N[C@@H](Cc1ccc(O)cc1)C(=O)N[C@@H](CC(N)=O)C(=O)N[C@@H](CCCN=C(N)N)C(N)=O [VDKKHYRPRPRPPRRIYNR]
4 (≈ 7.58 µg/mL)	8 (≈ 15.2 µg/mL)	4 (≈ 7.58 µg/mL)	4 (≈ 7.58 µg/mL)	2 (≈ 3.79 µg/mL)	8 (≈ 15.2 µg/mL)		CC[C@H](C)[C@H](NC(=O)[C@H](Cc1c[nH]c2ccccc12)NC(=O)[C@H](CCCN=C(N)N)NC(=O)[C@@H](NC(=O)[C@@H](NC(=O)[C@H](CCCN=C(N)N)NC(=O)[C@H](CCCCN)NC(=O)[C@@H](N)Cc1c[nH]c2ccccc12)[C@@H](C)CC)C(C)C)C(=O)N[C@@H](CCCCN)C(=O)N[C@@H](CCCN=C(N)N)C(=O)N[C@@H](Cc1c[nH]c2ccccc12)C(=O)N[C@@H](CC(C)C)C(=O)N[C@@H](CCCN=C(N)N)C(N)=O [WKRIVRWIKRWLR]
